Reference: patent US20220331303A1, “USE OF AN OREXIN 2 RECEPTOR AGONIST FOR THE TREATMENT OF EXCESSIVE SLEEPINESS” (Takeda Pharmaceutical Company Limited, priority 2019, published 2022)

Test system: sleep-deprived healthy volunteers
Experiment: Polysomnography (PSG) of recovery sleep after sleep deprivation in healthy volunteers
Type: in vivo, human
Procedure: Exploratory objectives in sleep-deprived healthy volunteers were as follows: • 1. To compare the effects of Compound A (LD and HD) and modafinil (300 mg) on promoting wakefulness as measured by MWT. • 2. To determine PK-PD relationships for selected PD measures. • 3. To evaluate PK-BP relationships in BP change after Compound A administration. • 4. To compare various polysomnography (PSG) parameters between Day −1 (predose) and Day 2 (recovery sleep). • 5. To determine whether there is any difference in the PSG parameters on Day 2 (recovery sleep) between Compound A and placebo or modafinil. • 6. To evaluate the continuous electroencephalogram (EEG) obtained during the MWTs for power spectra changes for Compound A (LD and HD) versus placebo, Compound A (LD and HD) versus modafinil, and modafinil versus placebo.
During the day before dosing on Day 1, participants were administered the KSS at scheduled timepoints. A practice MWT session was performed on Day 1 treatment period 1 (only once during the entire study) to familiarize subjects with the procedures. Study drug was administered in the clinic in the evening on Day 1 of each treatment period. Subjects underwent the MWT and KSS at specified timepoints after the start of the infusion. Subjects were required to stay awake between the MWT tests. Following completion of the IV infusion on Day 2, subjects underwent an additional MWT test. When the final MWT test and cognitive testing were completed, subjects were allowed to sleep (recovery sleep) for approximately 6 hours. PSG recording was collected during this time. Subjects were discharged from the unit after completion on Day 2 with continuing actigraphy upon discharge (to begin on Day −6 before the next treatment period). The interval between each subsequent treatment period was at least 7 days to ensure that the subject's circadian rhythm had returned to a normal cycle. Subject's vital signs, including BP, were monitored during the dosing and testing period. Blood samples for determination of Compound A plasma concentrations were collected at specified timepoints on Days 1 and 2 of each treatment period. Subjects completed the Columbia-Suicide Severity Rating Scale (C-SSRS) during screening, before study drug administration, and before discharge on Day 2 of each treatment period.
The PSGs assess recovery sleep during the day after the end of the sleep deprivation period. There were no corrections for multiple comparisons. […]

[1] = M: Modafinil 300 mg, recovery sleep
[2] = Modafinil 300 mg, recovery sleep

SMILES: NC(=O)C[S+]([O-])C(c1ccccc1)c1ccccc1 (stereo not shown) [Modafinil, modafinil, reference compound]
- Stage N3 Duration LS Mean (M: Modafinil 300 mg): 51.61 min
- Stage N3 Duration LS Mean Difference vs placebo Estimate (M: Modafinil 300 mg): -29.78 min
- Stage REM % LS Mean (M: Modafinil 300 mg): 17.46%
- Stage REM % LS Mean Difference vs placebo Estimate (M: Modafinil 300 mg): −3.92%
- Stage REM Duration LS Mean (M: Modafinil 300 mg): 41.38 min
- Stage REM Duration LS Mean Difference vs placebo Estimate (M: Modafinil 300 mg): -25.18 min
- Stage Wake % LS Mean (M: Modafinil 300 mg): 23.01%
- Stage Wake % LS Mean Difference vs placebo Estimate (M: Modafinil 300 mg): 12.71%
- Stage Wake Duration LS Mean (M: Modafinil 300 mg): 60.92 min
- Stage Wake Duration LS Mean Difference vs placebo Estimate (M: Modafinil 300 mg): 25.39 min
- Total Arousal Index LS Mean (M: Modafinil 300 mg): 14.28
- Total Arousal Index LS Mean Difference vs placebo Estimate (M: Modafinil 300 mg): 4.28
- Total Arousal LS Mean (M: Modafinil 300 mg): 51.11
- Total Arousal LS Mean Difference vs placebo Estimate (M: Modafinil 300 mg): 0.70
- Total Leg Movements LS Mean (M: Modafinil 300 mg): 23.91
- Total Leg Movements LS Mean Difference vs placebo Estimate (M: Modafinil 300 mg): 4.97
- Total Leg Movements N1 LS Mean (M: Modafinil 300 mg): 2.19
- Total Leg Movements N1 LS Mean Difference vs placebo Estimate (M: Modafinil 300 mg): 0.93
- Total Leg Movements N2 LS Mean (M: Modafinil 300 mg): 10.10
- Total Leg Movements N2 LS Mean Difference vs placebo Estimate (M: Modafinil 300 mg): 1.56
- Total Leg Movements N3 LS Mean (M: Modafinil 300 mg): 2.61
- Total Leg Movements N3 LS Mean Difference vs placebo Estimate (M: Modafinil 300 mg): 0.99
- Total Leg Movements REM LS Mean (M: Modafinil 300 mg): 5.75
- Total Leg Movements REM LS Mean Difference vs placebo Estimate (M: Modafinil 300 mg): 0.00
- Total Leg Movements with Awakening LS Mean (M: Modafinil 300 mg): 3.14
- Total Leg Movements with Awakening LS Mean Difference vs placebo Estimate (M: Modafinil 300 mg): 1.39
- Total Leg Movements with Microarous LS Mean (M: Modafinil 300 mg): 3.44
- Total Leg Movements with Microarous LS Mean Difference vs placebo Estimate (M: Modafinil 300 mg): 1.43
- Total Leg Movements with Resp Event LS Mean (M: Modafinil 300 mg): 0.04
- Total Leg Movements with Resp Event LS Mean Difference vs placebo Estimate (M: Modafinil 300 mg): −0.01
- Total Leg Movements without Arousal LS Mean (M: Modafinil 300 mg): 20.42
- Total Leg Movements without Arousal LS Mean Difference vs placebo Estimate (M: Modafinil 300 mg): 3.50
- Total Recording Time LS Mean (M: Modafinil 300 mg): 321.98 min
- Total Recording Time LS Mean Difference vs placebo Estimate (M: Modafinil 300 mg): -34.92 min
- Total Sleep Time LS Mean (M: Modafinil 300 mg): 224.54 min
- Total Sleep Time LS Mean Difference vs Placebo Estimate (M: Modafinil 300 mg): -84.93 min
- Wake After Persistent Sleep LS Mean (M: Modafinil 300 mg): 47.63 min
- Wake After Persistent Sleep LS Mean Difference vs placebo Estimate (M: Modafinil 300 mg): 13.00 min
- Wake After Sleep Onset LS Mean (M: Modafinil 300 mg): 60.92 min
- Wake After Sleep Onset LS Mean Difference vs placebo Estimate (M: Modafinil 300 mg): 25.39 min
- PSG Awakenings LS Mean [1]: 5.38
- PSG Awakenings LS Mean Difference vs Placebo Estimate [1]: 0.89
- PSG N1 Latency LS Mean [1]: 6.07 min
- PSG N1 Latency LS Mean Difference vs Placebo Estimate [1]: 0.71 min
- PSG N2 Latency LS Mean [1]: 8.62 min
- PSG N2 Latency LS Mean Difference vs Placebo Estimate [1]: 1.98 min
- PSG N3 Latency LS Mean [1]: 38.00 min
- PSG N3 Latency LS Mean Difference vs Placebo Estimate [1]: 10.73 min
- PSG Per. Slp LS Mean [1]: 26.19 min
- PSG Per. Slp LS Mean Difference vs Placebo Estimate [1]: 19.32 min
- PSG REM Latency LS Mean [1]: 71.67 min
- PSG REM Latency LS Mean Difference vs Placebo Estimate [1]: 16.73 min
- PSG Sleep Efficiency LS Mean [1]: 68.28%
- PSG Sleep Efficiency LS Mean Difference vs Placebo Estimate [1]: −18.44%
- PSG Sleep Onset LS Mean [1]: 5.99 min
- PSG Sleep Onset LS Mean Difference vs Placebo Estimate [1]: 2.00 min
- PSG Spontaneous Arousal Index LS Mean [1]: 11.91
- PSG Spontaneous Arousal Index LS Mean Difference vs Placebo Estimate [1]: 2.98
- PSG Spontaneous Arousal LS Mean [1]: 42.14
- PSG Spontaneous Arousal LS Mean Difference vs Placebo Estimate [1]: −2.93
- PSG Stage N1 % LS Mean [1]: 10.14%
- PSG Stage N1 % LS Mean Difference vs Placebo Estimate [1]: 4.05%
- PSG Stage N1 Duration LS Mean [1]: 19.12 min
- PSG Stage N1 Duration LS Mean Difference vs Placebo Estimate [1]: 0.72 min
- PSG Stage N2 % LS Mean [1]: 50.94%
- PSG Stage N2 % LS Mean Difference vs Placebo Estimate [1]: 4.24%
- PSG Stage N2 Duration LS Mean [1]: 111.09 min
- PSG Stage N2 Duration LS Mean Difference vs Placebo Estimate [1]: -32.99 min
- PSG Stage N3 % LS Mean [1]: 21.61%
- PSG Stage N3 % LS Mean Difference vs Placebo Estimate [1]: −4.22%
- PSG sleep efficiency, LS mean difference vs placebo [2]: −18.44%
- PSG spontaneous arousal index, LS mean difference vs placebo [2]: 2.98
- PSG stage N1 %, LS mean difference vs placebo [2]: 4.05%
- PSG stage N2 duration, LS mean difference vs placebo [2]: -32.99 min
- PSG stage N3 %, LS mean difference vs placebo [2]: −4.22%
- PSG stage N3 duration, LS mean difference vs placebo [2]: −29.78
- PSG stage REM %, LS mean difference vs placebo [2]: −3.92%
- PSG stage REM duration, LS mean difference vs placebo [2]: -25.18 min
- PSG stage wake %, LS mean difference vs placebo [2]: 12.71%
- PSG stage wake duration, LS mean difference vs placebo [2]: 25.39 min
- PSG time to per. slp (persistent sleep), LS mean difference vs placebo [2]: 19.32 min
- PSG total arousal index, LS mean difference vs placebo [2]: 4.28
- PSG total recording time, LS mean difference vs placebo [2]: -34.92 min
- PSG total sleep time, LS mean difference vs placebo [2]: -84.93 min
- PSG wake after sleep onset, LS mean difference vs placebo [2]: 25.39 min
